# According to US9822099B2, “Triazole derivatives” (priority 2013, dated 2017):
# Where two headings read alike, the source gives them in different places. Marks after values point to notes of the source that are not given here.
# What was measured:
# Uromyces appendiculatus = assay: Example F: in vivo preventive test on Uromyces appendiculatus (bean rust); details: bean plants, preventive spray, evaluated 11 days after inoculation
# Description: (§1) The young plants of bean are treated by spraying the active ingredient prepared as described above. Control plants are treated only with an aqueous solution of acetone/Dimethyl sulfoxide/Tween®. After 24 hours, the plants are contaminated by spraying the leaves with an aqueous suspension of Uromyces appendiculatus spores.
# Septoria tritici = assay: Example D: in vivo preventive test on Septoria tritici (leaf spot on wheat); details: wheat plants, preventive spray, evaluated 24 days after inoculation
# Description: as §1, with “wheat” for “bean”, “Septoria tritici” for “Uromyces appendiculatus”
# Puccinia recondita = assay: Example B: in vivo preventive test on Puccinia recondita (brown rust on wheat); details: wheat plants, preventive spray, evaluated 11 days after inoculation
# Description: as §1, with “wheat” for “bean”, “Puccinia recondita” for “Uromyces appendiculatus”
# Sphaerotheca fuliginea = assay: Example E: in vivo preventive test on Sphaerotheca fuliginea (powdery mildew on cucurbits); details: gherkin plants, preventive spray, evaluated 15 days after inoculation
# Description: as §1, with “gherkin” for “bean”, “Sphaerotheca fuliginea” for “Uromyces appendiculatus”
# Botrytis cinerea = assay: Example A: in vivo preventive test on Botrytis cinerea (grey mould); details: gherkin plants, preventive spray, evaluated 4 to 5 days after inoculation
# Description: as §1, with “gherkin” for “bean”, “Botrytis cinerea” for “Uromyces appendiculatus”
# Pyrenophora teres = assay: Example C: in vivo preventive test on Pyrenophora teres (net blotch on barley); details: barley plants, preventive spray, evaluated 14 days after inoculation
# Description: as §1, with “barley” for “bean”, “Pyrenophora teres” for “Uromyces appendiculatus”
# [1] = system: Fusarium nivale (var. majus); assay: Example J: Fusarium nivale (var. majus)-test (wheat)/preventive; assay type: in vivo; details: 500 ppm of active ingredient, preventive, evaluated 5 days after inoculation
# Description: Solvent: 49 parts by weight of N,N-dimethylacetamide
# Emulsifier: 1 part by weight of alkylaryl polyglycol ether
# To produce a suitable preparation of active compound, 1 part by weight of active compound or active compound combination is mixed with the stated amounts of solvent and emulsifier, and the concentrate is diluted with water to the desired concentration.
# To test for preventive activity, young plants are sprayed with the preparation of active compound or active compound combination at the stated rate of application.
# After the spray coating has been dried, the plants are slightly injured by using a sandblast and afterwards they are sprayed with a conidia suspension of Fusarium nivale (var. majus).
# The plants are placed in the greenhouse under a translucent incubation cabinet at a temperature of approximately 10° C. and a relative atmospheric humidity of approximately 100%.
# The test is evaluated 5 days after the inoculation. 0% means an efficacy which corresponds to that of the untreated control, while an efficacy of 100% means that no disease is observed.
# [2] = system: Blumeria graminis f. sp. hordei; assay: Example G: Blumeria test (barley)/preventive; assay type: in vivo; details: 500 ppm of active ingredient, preventive, evaluated 7 days after inoculation
# Description: Solvent: 49 parts by weight of N,N-dimethylacetamide Emulsifier: 1 part by weight of alkylaryl polyglycol ether To produce a suitable preparation of active compound, 1 part by weight of active compound or active compound combination is mixed with the stated amounts of solvent and emulsifier, and the concentrate is diluted with water to the desired concentration. To test for preventive activity, young plants are sprayed with the preparation of active compound or active compound combination at the stated rate of application. After the spray coating has been dried, the plants are dusted with spores of Blumeria graminis f. sp. hordei.
SMILES,LogP (pH 2.7),Eff. % (Uromyces appendiculatus; 500 ppm of active ingredient) [%],Eff. % (Septoria tritici; 500 ppm of active ingredient) [%],Eff. % (Puccinia recondita; 500 ppm of active ingredient) [%],Eff. % (Sphaerotheca fuliginea; 500 ppm of active ingredient) [%],other results
OC(Cc1ccccc1F)(Cc1cc(F)ncc1Cl)Cn1cncn1 (racemic) [Example I-64],2.46^[a],94,97,83,100,–
OC(Cc1ccc(Cl)cn1)(Cn1cncn1)C1(Cl)CC1 (racemic) [Example I-67],2.23^[a],100,100,98,98,Eff. % (Botrytis cinerea; 500 ppm of active ingredient): 99%; Eff. % (Pyrenophora teres; 500 ppm of active ingredient): 86%
OC(CCc1ccccc1Cl)(Cc1ccncc1Cl)Cn1cncn1 (racemic) [Example I-68],2.29^[a],100,100,94,100,Eff. % (Pyrenophora teres; 500 ppm of active ingredient): 71%
COc1nccnc1CC(O)(Cn1cncn1)C1(Cl)CC1 (racemic) [Example I-72],1.88^[a],100,80,–,98,–
OC(Cc1ccc(F)cc1)(Cc1ccncc1Cl)Cn1cncn1 (racemic) [Example I-75],1.93^[a],–,100,81,100,–
OC(COc1ccc(F)cc1)(Cc1ccncc1Cl)Cn1cncn1 (racemic) [Example I-79],1.86^[a],100,100,98,100,Eff. % (Botrytis cinerea; 500 ppm of active ingredient): 99%
OC(Cc1ccncc1Cl)(Cn1cncn1)c1ccc2oc3ccccc3c2c1 (racemic) [Example I-80],–,99,100,88,100,"LogP (method [a]: LC-MS at pH 2.7, 0.1% formic acid in water / acetonitrile gradient): 2.40^[a]"
OC(Cc1cc(Cl)cnc1Cl)(Cn1cncn1)C1(Cl)CC1 (racemic) [Example I-83],2.53^[a],100,100,100,100,Eff. % (Botrytis cinerea; 500 ppm of active ingredient): 100%; Eff. % (Pyrenophora teres; 500 ppm of active ingredient): 88%
Cc1cccc2cc(CC(O)(Cn3cncn3)C3(Cl)CC3)c(Cl)nc12 (racemic) [Example I-84],3.53^[a],100,–,88,–,Eff. % (Septoria tritici; 100 ppm of active ingredient): 81%
OC(Cc1ccnc(Cl)c1F)(Cn1cncn1)C1(F)CC1 (racemic) [Example I-87],1.23^[a],78,83,89,72,–
OC(Cc1cccc(Cl)c1)(Cc1ccnc(Cl)c1F)Cn1cncn1 (racemic) [Example I-88],2.02^[a],–,100,89,98,–
OC(Cc1cc(F)ncc1Cl)(Cn1cncn1)C1(Cl)CC1 (racemic) [Example I-89],2.30^[a],100,100,100,100,Eff. % (Botrytis cinerea; 500 ppm of active ingredient): 100%; Eff. % (Pyrenophora teres; 500 ppm of active ingredient): 100%
CC(C)(CCl)C(O)(Cc1ccncc1Cl)Cn1cncn1 (racemic) [Example I-90],1.76^[a],–,78,–,100,Eff. % (Botrytis cinerea; 500 ppm of active ingredient): 100%; LogP (pH 7.8): 1.96^[b];
CC(C)(Oc1ccc(F)cc1)C(O)(Cc1ccncc1Cl)Cn1cncn1 (racemic) [Example I-91],2.48^[a],97,100,89,98,Eff. % (Botrytis cinerea; 500 ppm of active ingredient): 95%; LogP (pH 7.8): 2.60^[b];
OC(Cc1ccc2ccccc2n1)(Cn1cncn1)C1(Cl)CC1 (stereo not shown) [Example I-1],1.64^[a],–,–,–,–,Eff. % (Pyrenophora teres; 100 ppm of active ingredient): 83%; Eff. % (Uromyces appendiculatus; 100 ppm of active ingredient): 80%
OC(Cc1ncccc1Cl)(Cn1cncn1)C1(Cl)CC1 (stereo not shown) [Example I-2],2.28^[a],100,100,94,95,Eff. % (Botrytis cinerea; 500 ppm of active ingredient): 94%
OC(Cc1ccncc1Cl)(Cn1cncn1)c1cccnc1Cl (stereo not shown) [Example I-14],1.23^[a],–,–,–,–,Eff. % (Uromyces appendiculatus; 100 ppm of active ingredient): 87%; Eff. % (Sphaerotheca fuliginea; 100 ppm of active ingredient): 100%
CC(Oc1ccc(Cl)cc1)C(O)(Cc1cccnc1Cl)Cn1cncn1 (stereo not shown) [Example I-16],–,–,–,–,–,Eff. % (Botrytis cinerea; 100 ppm of active ingredient): 87%; Eff. % (Uromyces appendiculatus; 100 ppm of active ingredient): 91%; Eff. % (Septoria tritici; 100 ppm of active ingredient): 98%; Eff. % (Puccinia recondita; 100 ppm of active ingredient): 75%; Eff. % (Sphaerotheca fuliginea; 100 ppm of active ingredient): 100%
OC(Cc1cc(Cl)cc(Cl)n1)(Cn1cncn1)C1(Cl)CC1 (stereo not shown) [Example I-17],2.76^[a],–,–,–,–,Eff. % (Uromyces appendiculatus; 100 ppm of active ingredient): 94%; Eff. % (Septoria tritici; 100 ppm of active ingredient): 97%; Eff. % (Sphaerotheca fuliginea; 100 ppm of active ingredient): 100%
OC(Cc1ccncc1F)(Cn1cncn1)c1cccnc1Cl (stereo not shown) [Example I-23],0.91^[a],–,–,–,–,Eff. % (Uromyces appendiculatus; 100 ppm of active ingredient): 92%; Eff. % (Sphaerotheca fuliginea; 100 ppm of active ingredient): 88%
OC(Cc1ccncc1F)(Cn1cncn1)c1ccc(Cl)nc1 (stereo not shown) [Example I-24],0.99^[a],–,–,–,–,Eff. % (Uromyces appendiculatus; 100 ppm of active ingredient): 92%; Eff. % (Sphaerotheca fuliginea; 100 ppm of active ingredient): 94%
OC(Cc1cc(Cc2ccc(Cl)c(Cl)n2)cc(Cl)n1)(Cn1cncn1)C1(Cl)CC1 (stereo not shown) [Example I-32],3.58^[a],–,–,–,–,Eff. % (Puccinia recondita; 100 ppm of active ingredient): 75%
OC(Cc1cc(Cl)ncc1F)(Cn1cncn1)C1(F)CC1 (stereo not shown) [Example I-41],1.66^[a],–,–,–,–,Eff. % (Uromyces appendiculatus; 100 ppm of active ingredient): 94%; Eff. % (Sphaerotheca fuliginea; 100 ppm of active ingredient): 100%
CC(CF)(CF)C(O)(Cc1cc(Cl)ncc1F)Cn1cncn1 (stereo not shown) [Example I-44],1.89^[a],–,–,–,–,Eff. % (Uromyces appendiculatus; 100 ppm of active ingredient): 94%; Eff. % (Sphaerotheca fuliginea; 100 ppm of active ingredient): 100%
Cc1cccc(CC(O)(Cn2cncn2)C2(Cl)CC2)n1 (stereo not shown) [Example I-48],0.52^[a],81,–,–,83,–
OC(Cc1ccncn1)(Cn1cncn1)C1(Cl)CC1 (stereo not shown) [Example I-50],1.10^[a],100,100,94,100,Eff. % (Botrytis cinerea; 500 ppm of active ingredient): 100%; Eff. % (Pyrenophora teres; 500 ppm of active ingredient): 79%
OC(Cc1cc(Oc2ccc(Cl)cc2)nnc1Cl)(Cn1cncn1)C1(Cl)CC1 (stereo not shown) [Example I-55],3.08^[a],98,100,79,100,–
OC(Cc1cncc(Oc2ccc(Cl)cc2)n1)(Cn1cncn1)C1(Cl)CC1 (stereo not shown) [Example I-56],2.88^[a],96,92,86,100,Eff. % (Pyrenophora teres; 500 ppm of active ingredient): 88%
OC(Cc1ncnc(Cl)c1Cl)(Cn1cncn1)C1(Cl)CC1 (stereo not shown) [Example I-57],2.28^[a],96,92,86,95,Eff. % [1]: 71%; Eff. % (Pyrenophora teres; 500 ppm of active ingredient): 88%; Eff. % [2]: 100%
OC(Cc1ccnc(Cl)c1F)(Cn1cncn1)c1cccnc1Cl (stereo not shown) [Example I-59],1.54^[a],100,100,98,100,–
